system: HCV 1b-377-neo replicon cells; test: HCV Replicon assay, HCV 1b-377-neo replicon cells; assay type: cell-based, HCV 1b genotype; conditions: Hepatitis C virus, Table 2, read-out: Range (EC50 against HCV 1b)
Protocol: An HCV Replicon assay was utilized in the present disclosure, and was prepared, conducted and validated as described in commonly owned PCT/US2006/022197 and in O'Boyle et. al. Antimicrob Agents Chemother. 2005 April; 49(4):1346-53.
HCV 1b-377-neo replicon cells were used to test the currently described compound series as well as cells resistant to compound A due to a Y2065H mutation in NS5A (described in application PCT/US2006/022197). The compounds tested were determined to have more than 10-fold less inhibitory activity on cells resistant to compound A than wild-type cells indicating a related mechanism of action between the two compound series. Thus, the compounds of the present disclosure can be effective to inhibit the function of the HCV NS5A protein and are understood to be as effective in combinations as previously described in application PCT/US2006/022197 and commonly owned WO/O4014852. Further, the compounds of the present disclosure can be effective against the HCV 1b genotype. It should also be understood that the compounds of the present disclosure can inhibit multiple genotypes of HCV. […] In one embodiment compounds of the present disclosure are active against the 1a, 1b, 2a, 2b, 3a, 4a, and 5a genotypes.

SMILES | EC50 [nM]
COC(=O)N[C@@H](C)C(=O)N1CCC[C@H]1c1nc(-c2cnc(-c3ccc(-c4cnc([C@@H]5CCCN5C(=O)[C@H](C)NC(=O)OC)[nH]4)c(F)c3)nc2)c[nH]1 [Example D67, methyl ((1S)-2-((2S)-2-(5-(2-fluoro-4-(5-(2-((2S)-1-(N-(methoxycarbonyl)-L-alanyl)-2-pyrrolidinyl)-1H-imidazol-5-yl)-2-pyrimidinyl)phenyl)-1H-imidazol-2-yl)-1-pyrrolidinyl)-1-methyl-2-oxoethyl)carbamate] | 0.001 to 0.999
COC(=O)N[C@@H](C(=O)N(C)[C@@H](C)c1ncc(-c2ccc(-c3ncc(-c4cnc([C@@H]5CCCN5C(=O)[C@@H](c5ccccc5)N5CCCCC5)[nH]4)cn3)cc2)[nH]1)c1ccccc1 [Example 152l-1, methyl ((1R)-2-(methyl((1S)-1-(4-(4-(5-(2-((2S)-1-((2R)-2-phenyl-2-(1-piperidinyl)acetyl)-2-pyrrolidinyl)-1H-imidazol-5-yl)-2-pyrimidinyl)phenyl)-1H-imidazol-2-yl)ethyl)amino)-2-oxo-1-phenylethyl)carbamate] | 0.001 to 0.999
COC(=O)N[C@@H](C(=O)N[C@@H](C)c1ncc(-c2ccc(-c3ccc(-c4cnc([C@H](C)NC(=O)[C@H](NC(=O)OC)c5ccccc5)[nH]4)cn3)cc2)[nH]1)c1ccccc1 [Example 152j-23, methyl ((1R)-2-(((1S)-1-(5-(6-(4-(2-((1S)-1-(((2R)-2-((methoxycarbonyl)amino)-2-phenylace-tyl)amino)eth-yl)-1H-imidazol-5-yl)phenyl)-3-pyridinyl)-1H-imidazol-2-yl)ethyl)amino)-2-oxo-1-phenylethyl)carbamate] | 0.001 to 0.999
COC(=O)N[C@H](C(=O)Nc1ncc(-c2ccc(-c3ccc(-c4cnc([C@@H]5CCCN5C(=O)[C@@H](NC(=O)OC)C(C)C)[nH]4)cc3)cc2)[nH]1)C(C)C [Example R33, (S)-2-methoxycarbonylamino-N-(5-(4′-(2-((S)-1-((S)-2-methoxycarbonylamino-3-methylbutanoyl)pyrrolidin-2-yl)-1H-imidazol-5-yl)biphenyl-4-yl)-1H-imidazol-2-yl)-3-methylbutanamide] | 1 to 99
COC(=O)N[C@@H](C(=O)N(C)[C@@H](C)c1ncc(-c2ccc(-c3ncc(-c4cnc([C@@H]5CCCN5C(=O)[C@H](NC(=O)OC)c5ccccc5)[nH]4)cn3)cc2)[nH]1)c1ccccc1 [Example 152j-21, methyl ((1R)-2-((2S)-2-(5-(2-(4-(2-((1S)-1-(((2R)-2-((methoxycarbonyl)amino)-2-phenylacetyl)(methyl)amino)ethyl)-1H-imidazol-5-yl)phenyl)-5-pyrimidinyl)-1H-imidazol-2-yl)-1-pyrrolidinyl)-2-oxo-1-phenylethyl)carbamate] | 0.001 to 0.999
C[C@@H](c1ncc(-c2ccc(-c3ccc(-c4cnc([C@H](C)N(C)C(=O)[C@@H](c5ccccc5)N5CCCCC5)[nH]4)cc3)cc2)[nH]1)N(C)C(=O)[C@@H](c1ccccc1)N1CCCCC1 [Example 24-18-3, (2R,2′R)-N,N′-(4,4′-biphenyldiylbis (1H-imidazol-5,2-diyl(1S)-1,1-ethanediyl))bis(N-methyl-2-phenyl-2-(1-piperidinyl)acetamide)] | 0.001 to 0.999
COC(=O)N[C@@H](C(=O)N1CCC[C@H]1c1ncc(-c2ccc(-c3ccc(-c4cnc([C@@H]5CCCN5C(=O)C5CCN(C)CC5)[nH]4)cn3)cc2)[nH]1)c1ccccc1 [Example 142, methyl ((1R)-2-((2S)-2-(5-(4-(5-(2-((2S)-1-((1-methyl-4-piperidinyl)carbonyl)-2-pyrrolidinyl)-1H-imidazol-5-yl)-2-pyridinyl)phenyl)-1H-imidazol-2-yl)-1-pyrrolidinyl)-2-oxo-1-phenylethyl)carbamate] | 1 to 99
C[C@H](NC(=O)[C@@H](c1ccccc1)N(C)C)c1ncc(-c2cnc(-c3ccc(-c4cnc([C@@H]5CCCN5C(=O)[C@@H](c5ccccc5)N(C)C)[nH]4)cc3)nc2)[nH]1 [Example 152j-16, (2R)-2-(dimethylamino)-N-((1S)-1-(5-(2-(4-(2-((2S)-1-((2R)-2-(dimethylamino)-2-phenylacetyl)-2-pyrrolidinyl)-1H-imidazol-5-yl)phenyl)-5-pyrimidinyl)-1H-imidazol-2-yl)ethyl)-2-phenylacetamide] | 0.001 to 0.999
CCN(CC)[C@@H](C(=O)N1CCC[C@H]1c1ncc(-c2ccc(-c3ncc(-c4c[nH]c([C@@H]5CCCN5C(=O)[C@H](C)NC(=O)OC)n4)cn3)cc2)[nH]1)c1ccccc1 [Example D77, methyl ((1S)-2-((2S)-2-(5-(2-(4-(2-((2S)-1-((2R)-2-(diethylamino)-2-phenylacetyl)-2-pyrrolidinyl)-1H-imidazol-5-yl)phenyl)-5-pyrimidinyl)-1H-imidazol-2-yl)-1-pyrrolidinyl)-1-methyl-2-oxoethyl)carbamate] | 0.001 to 0.999
COC(=O)N[C@@H](C)C(=O)N1CCC[C@H]1c1ncc(-c2cnc(-c3ccc(-c4[nH]c([C@@H]5CCCN5C(=O)[C@H](C)NC(=O)OC)nc4C(F)(F)F)cc3)nc2)[nH]1 [Example J50, methyl ((1S)-2-((2S)-2-(5-(4-(5-(2-((2S)-1-(N-(methoxycarbonyl)-L-alanyl)-2-pyrrolidinyl)-1H-imidazol-5-yl)-2-pyrimidinyl)phenyl)-4-(trifluoromethyl)-1H-imidazol-2-yl)-1-pyrrolidinyl)-1-methyl-2-oxoethyl)carbamate] | 0.001 to 0.999
C[C@H](NC(=O)[C@@H](c1ccccc1)N(C)C)c1ncc(-c2cnc(-c3ccc(-c4cnc([C@@H]5CCCN5C(=O)[C@@H](c5ccccc5)N(C)C)[nH]4)cc3)cn2)[nH]1 [Example 152j-18, (2R)-2-(dimethylamino)-N-((1S)-1-(5-(5-(4-(2-((2S)-1-((2R)-2-(dimethylamino)-2-phenylacetyl)-2-pyrrolidinyl)-1H-imidazol-5-yl)phenyl)-2-pyrazinyl)-1H-imidazol-2-yl)ethyl)-2-phenylacetamide] | 0.001 to 0.999
COC(=O)N[C@H](C(=O)N1CCC[C@H]1c1ncc(-c2ccc(-c3ccc(-c4cnc([C@@H]5CCCN5C(=O)[C@@H](Nc5noc(N)n5)C(C)C)[nH]4)cc3)cc2)[nH]1)C(C)C [cj-16, methyl((1S)-1-(((2S)-2-(5-(4′-(2-((2S)-1-(N-(5-amino-1,2,4-oxadiazol-3-yl)-L-valyl)-2-pyrrolidinyl)-1H-imidazol-5-yl)-4-biphenylyl)-1H-imidazol-2-yl)-1-pyrrolidinyl)carbonyl)-2-methylpropyl)carbamate] | 0.001 to 0.999
COC(=O)N[C@@H](C(=O)N[C@@H](C)c1ncc(-c2ccc(-c3ccc(-c4cnc([C@@H]5CCCN5C(=O)[C@H](NC(=O)OC)c5ccccc5)[nH]4)nn3)cc2)[nH]1)c1ccccc1 [Example 152j-14, methyl ((1R)-2-((2S)-2-(5-(6-(4-(2-((1S)-1-(((2R)-2-((methoxycarobnyl)amino)-2-phenylace-tyl)amino)eth-yl)-1H-imidazol-5-yl)phenyl)-3-pyridazinyl)-1H-imidazol-2-yl)-1-pyrrolidinyl)-2-oxo-1-phenylethyl)carbamate] | 1 to 99
COC(=O)N[C@@H](C)C(=O)N(C)[C@@H](C)c1ncc(-c2ccc(-c3ccc(-c4[nH]c([C@@H]5CCCN5C(=O)[C@H](C)NC(=O)OC)nc4C(F)(F)F)cc3)cc2)[nH]1 [Example J42.a, methyl ((1S)-2-((2S)-2-(5-(4′-(2-((1S)-1-((N-(methoxycarbonyl)-L-alanyl)(methyl)amino)ethyl)-1H-imidazol-5-yl)-4-biphenylyl)-4-(trifluoromethyl)-1H-imidazol-2-yl)-1-pyrrolidinyl)-1-methyl-2-oxoethyl)carbamate] | 0.001 to 0.999
Cc1cc(-c2cnc([C@@H]3CCCN3C(=O)[C@@H](c3ccccc3)N(C)C)[nH]2)ccc1-c1ccc(-c2cnc([C@@H]3CCCN3C(=O)[C@@H](c3ccccc3)N(C)C)[nH]2)cc1C [Example 121, (1R,1′R)-2,2′-((2,2′-dimethyl-4,4′-biphenyldiyl)bis(1H-imidazole-5,2-diyl(2S)-2,1-pyrrolidinediyl))bis(N,N-dimethyl-2-oxo-1-phenylethanamine)] | 0.001 to 0.999
CN(C)[C@@H](C(=O)N1CCC[C@H]1c1ncc(-c2ccc(-c3ccc(-c4cnc([C@@H]5CCCN5C(=O)[C@@H](c5ccccc5)N(C)C)[nH]4)cn3)cc2)[nH]1)c1ccccc1 [Example 132, (1R)-2-((2S)-2-(5-(6-(4-(2-((2S)-1-((2R)-2-(dimethylamino)-2-phenylacetyl)-2-pyrrolidinyl)-1H-imidazol-5-yl)phenyl)-3-pyridinyl)-1H-imidazol-2-yl)-1-pyrrolidinyl)-N,N-dimethyl-2-oxo-1-phenylethanamine] | 0.001 to 0.999

same assay, conditions: Table 2, listed as 151 isomer 1, read-out: Range (EC50 against HCV 1b)

SMILES | EC50 [nM]
CN(C)[C@@H](C(=O)N1CCC[C@H]1c1nc(-c2ccc(-c3ccc(-c4cn(C)c([C@@H]5CCCN5C(=O)[C@@H](c5ccccc5)N(C)C)n4)cc3)cc2)cn1C)c1ccccc1 (single isomer, unassigned) [Example 151 isomer 1] | 1 to 99

same assay, conditions: Table 2, read-out: Range (EC50 against HCV 1b)

SMILES | EC50 [nM]
COC(=O)N[C@H](C(=O)N1CCC[C@H]1c1ncc(-c2ccc(-c3ccc(-c4cnc([C@@H]5CCCN5C(=O)CNCc5ccccc5)[nH]4)cc3)cc2)[nH]1)C(C)C [LS22] | 0.001 to 0.999
